Drawing on patent publication US20240366598A1, “GLUCOSE-DEPENDENT INSULINOTROPIC POLYPEPTIDE RECEPTOR ANTAGONISTS AND USES THEREOF” (Pfizer Inc., priority 2023, published 2024), this text covers IC50 for 21 molecules.

The target of the assay is T1, human Glucose-dependent Insulinotropic Polypeptide Receptor (hGIPR) (Homo sapiens, UniProt P48546).
T1 sequence (P48546 22-466): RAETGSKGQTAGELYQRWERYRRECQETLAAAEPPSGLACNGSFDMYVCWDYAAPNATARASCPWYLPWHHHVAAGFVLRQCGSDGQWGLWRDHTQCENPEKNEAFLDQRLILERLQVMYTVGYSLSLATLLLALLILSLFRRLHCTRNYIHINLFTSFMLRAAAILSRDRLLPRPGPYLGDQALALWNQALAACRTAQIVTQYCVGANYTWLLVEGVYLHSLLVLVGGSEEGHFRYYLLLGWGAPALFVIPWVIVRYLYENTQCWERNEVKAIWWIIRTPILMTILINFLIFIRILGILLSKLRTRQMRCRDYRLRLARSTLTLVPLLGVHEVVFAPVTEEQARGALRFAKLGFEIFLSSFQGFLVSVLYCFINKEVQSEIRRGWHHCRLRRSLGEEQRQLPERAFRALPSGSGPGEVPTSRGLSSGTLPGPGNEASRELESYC
Description: Functional in vitro GIPR antagonist potency assay (cAMP HTRF, CHO-K1 cells stably expressing hGIPR, hGIP stimulation at about EC80). In kind it is cell-based. To be noted: geometric mean, hGIP at estimated EC80, examples marked ^2: overall geometric mean of multiple forms (including salts) tested. The protocol: Example AA. Functional In Vitro GIPR Antagonist Potency Assay
The functional in vitro antagonist potency for test compounds was determined by monitoring intracellular cyclic adenosine monophosphate (cAMP) levels in Chinese hamster ovary (CHO)—K1 cells stably expressing the human Glucose-dependent Insulinotropic Polypeptide Receptor (hGIPR). Following agonist activation, hGIPR associates with the G-protein complex causing the Gαs subunit to exchange bound guanosine diphosphate (GDP) for guanosine triphosphate (GTP), followed by dissociation of the Gαs-GTP complex. The activated Gas subunit can couple to downstream effectors to regulate the levels of second messengers or cAMP within the cell. Thereby, determination of intracellular cAMP levels allows for pharmacological characterization. Intracellular cAMP levels are quantitated using a homogenous assay utilizing the Homogeneous Time Resolved Fluorescence (HTRF) technology from Perkin Elmer. […] The two entities compete for binding to a monoclonal anti-cAMP antibody labeled with cryptate. The specific signal is inversely proportional to the concentration of cAMP in the cells.
Test compounds were solubilized to a concentration of 30 mM in 100% dimethyl sulfoxide (DMSO). An 11-point dilution series using 1 in 3.162-fold serial dilutions was created in 100% DMSO with a top concentration of 8 mM. The serially diluted compound was spotted with an Echo Acoustic liquid handler (Beckman Coulter) into a 384-well assay plate (Corning, Cat No. 3824) at 50 nL/well with duplicate points at each concentration, at a 200× final assay concentration (FAC). The final compound concentration range in the assay was 40 μM to […], with a final DMSO concentration of 0.5%.
Frozen assay-ready vials (at 1×10^7 cells/vial) of CHO-K1 cells stably expressing the Gs-coupled human GIPR receptor (Eurofins, DiscoverX, Cat No. 95-0146C2) were thawed, counted, and resuspended in assay buffer consisting of Hank's Balanced Salt Solution (HBSS, Lonza Cat No. 10-527) containing 20 mM (4-(2-hydroxyethyl)-1-piperazineethanesulfonic acid (HEPES, Lonza, Cat No. 17-737E), 0.1% bovine serum albumin (BSA, Sigma, Cat No. A7979), and 200 μM 3-isobutyl-1-methylxanthine (IBMX, Sigma, Cat No. 15879) at a density of 4×10^5 cells/mL. Cells were added to assay plate (5 μL/well of 4×10^5 cells/mL stock for 2,000 cells/well final) containing 50 nL of 200× FAC test compound, and incubated at 37° C. (95% O2: 5% CO2) for 2 hours, with micro-clime lids (Labcyte, Cat No. LLS-0310). Following the 2-hour cell and compound incubation, a stimulation mix comprised of hGIPR agonist human glucose-dependent insulinotropic polypeptide (hGIP, full length, Sigma Cat No. G2269) in assay buffer/0.1% DMSO was added to the assay plate (5 μL/well) at an estimated EC80 FAC (based on previous hGIP agonist curves) and incubated for another 30 minutes with micro-clime lids at 37° C. (95% O2: 5% CO2), after which intracellular cAMP levels were quantified as per Perkin Elmer's protocol (5 μL of d2 and then 5 μL cryptate, incubated for 1 hour at room temperature). Emission spectra of samples were measured on a Pherastar plate reader (BMG Labtech Inc) using a HTRF protocol (excitation, 320 nm; emission, 665 nm/620 nm).
(95% O2: 5% CO2), with a micro-clime lid. Following the 2-hour cell and DMSO incubation, a hGIP concentration response curve at 2× FAC (12-point curve using 1 in 3 serial dilutions, with triplicate points at each concentration, 100 nM final top concentration) in assay buffer/1% DMSO was added (5 μL/well) and incubated for a further 30 minutes with a micro-clime lid at 37° C. (95% O2: 5% CO2), after which intracellular cAMP levels were quantified and samples measured as described previously. Experiments passed quality control if the agonist concentration used for stimulation fell between the on-the-day EC50-EC90. […]
The term IC50 denotes the concentration at which inhibition is half-maximal. Consider `O=C(O)c1ccc(-c2ccc(NC(=O)[C@H]3CCCN3C(=O)Nc3ccc(C4CC4)c(C(F)(F)F)c3)cc2)cc1` [Example 26, 4′-[(1-{[4-Cyclopropyl-3-(trifluoromethyl)phenyl]carbamoyl}-D-prolyl)amino][1,1′-biphenyl]-4-carboxylic acid], for which the concentration for half-maximal inhibition (IC50) was 2.1 nM.
The figure for `Cc1nc(C(=O)O)ccc1-c1ccc(NC(=O)[C@H]2CCCN2C(=O)Nc2ccc(C(C)C)c(F)c2)cc1` [Example 27, 5-{4-[(1-{[3-Fluoro-4-(propan-2-yl)phenyl]carbamoyl}-D-prolyl)amino]phenyl}-6-methylpyridine-2-carboxylic acid] is 4.8 nM; for `CC(C)c1ccc(NC(=O)N2CCC[C@@H]2C(=O)Nc2ccc(-c3ccc(C(=O)O)c(F)c3)cc2)cc1` [Example 28, 3-Fluoro-4′-[(1-{[4-(propan-2-yl)phenyl]carbamoyl}-D-prolyl)amino][1,1′-biphenyl]-4-carboxylic acid] it is 10 nM.
Take `COc1cc(C(=O)O)ccc1-c1ccc(NC(=O)[C@H]2CCCN2C(=O)Nc2ccc(C(C)C)cc2)cc1` [Example 29, 2-Methoxy-4′-[(1-{[4-(propan-2-yl)phenyl]carbamoyl}-D-prolyl)amino][1,1′-biphenyl]-4-carboxylic acid]: the IC50 was 17 nM.
In the case of `COc1cc(-c2ccc(NC(=O)[C@H]3CCCN3C(=O)Nc3ccc(C(C)C)c(C)c3)cc2)ccc1C(=O)O` [Example 30, 3-Methoxy-4′-[(1-{[3-methyl-4-(propan-2-yl)phenyl]carbamoyl}-D-prolyl)amino][1,1′-biphenyl]-4-carboxylic acid], the IC50 is 5.7 nM.
For the molecule `O=C(O)c1ccc(-c2ccc(NC(=O)[C@H]3CCCN3C(=O)Nc3ccc(C(F)(F)F)cc3)nc2)cc1` [Example 31, 4-{6-[(1-{[4-(Trifluoromethyl)phenyl]carbamoyl}-D-prolyl)amino]pyridin-3-yl}benzoic acid], the IC50 was 7.8 nM.
With `COc1cc(-c2ccc(NC(=O)[C@H]3CCCN3C(=O)Nc3ccc(C(C)C)c(F)c3)cc2)ccc1C(=O)O` [Example 32, 4′-[(1-{[3-Fluoro-4-(propan-2-yl)phenyl]carbamoyl}-D-prolyl)amino]-3-methoxy[1,1′-biphenyl]-4-carboxylic acid], the IC50 was 6.1 nM.
With `CC(C)c1ccc(NC(=O)N2CCC[C@@H]2C(=O)Nc2cnc(-c3ccc(C(=O)O)cc3)c(F)c2)cc1` [Example 33, 4-{3-Fluoro-5-[(1-{[4-(propan-2-yl)phenyl]carbamoyl}-D-prolyl)amino]pyridin-2-yl}benzoic acid] the figure was 6.3 nM.
Turning to `CO[C@@H]1C[C@H](C(=O)Nc2ccc(-c3ccc(C(=O)O)cc3)cc2)N(C(=O)Nc2ccc(C(C)C)cc2)C1` [Example 36, 4′-{[(4R)-4-Methoxy-1-{[4-(propan-2-yl)phenyl]carbamoyl}-D-prolyl]amino}[1,1′-biphenyl]-4-carboxylic acid], the IC50 was 46 nM.
For the molecule `CC(C)c1ccc([C@H](C)NC(=O)N2CCC[C@@H]2C(=O)Nc2ccc(-c3ccc(C(=O)O)cc3)cc2)cc1` [Example 37, 4′-{[1-({(1S)-1-[4-(Propan-2-yl)phenyl]ethyl}carbamoyl)-D-prolyl]amino}[1,1′-biphenyl]-4-carboxylic acid], the IC50 was 58 nM.
In the case of `O=C(O)c1cccc(-c2ccc(NC(=O)[C@H]3CCCN3C(=O)Nc3ccc(C4CCC4)cc3)nc2)c1` [Example 38, 3-[6-({1-[(4-Cyclobutylphenyl)carbamoyl]-D-prolyl}amino)pyridin-3-yl]benzoic acid], the IC50 is 17 nM.
Turning to `Cc1cc(NC(=O)N2CCC[C@@H]2C(=O)Nc2ccc(-c3ccc(C(=O)O)cc3)cc2)ccc1C(C)C` [Example 39, ammonium 4′-[(1-{[3-methyl-4-(propan-2-yl)phenyl]carbamoyl}-D-prolyl)amino][1,1′-biphenyl]-4-carboxylate], the IC50 was 3.7 nM.
On to `Cc1cc(-c2ccc(NC(=O)[C@H]3CCCN3C(=O)Nc3ccc(C(C)C)cc3)cc2)ccc1C(=O)O` [Example 40, 3-methyl-4′-[(1-{[4-(propan-2-yl)phenyl]carbamoyl}-D-prolyl)amino][1,1′-biphenyl]-4-carboxylic acid], for which the IC50 is 7.3 nM.
Consider `O=C(O)c1ccc(-c2ccc(NC(=O)[C@H]3CCCN3C(=O)Nc3ccc(C4(C(F)(F)F)CC4)cc3)cc2)cc1` [Example 42, ammonium 4′-{[1-({4-[1-(trifluoromethyl)cyclopropyl]phenyl}carbamoyl)-D-prolyl]amino}[1,1′-biphenyl]-4-carboxylate], for which the IC50 was 15 nM.
On to `Cc1cc(NC(=O)N2CCC[C@@H]2C(=O)Nc2ccc(-c3ccc(C(=O)O)cc3)cc2)ccc1Cl` [Example 43, ammonium 4′-({1-[(4-chloro-3-methylphenyl)carbamoyl]-D-prolyl}amino)[1,1′-biphenyl]-4-carboxylate], for which the IC50 was 49 nM.
Consider `CC(C)c1ccc(NC(=O)N2CCC[C@@H]2C(=O)Nc2ccc(-c3cc(C(=O)O)c(F)cc3F)cc2)cc1` [Example 45, 4,6-difluoro-4′-[(1-{[4-(propan-2-yl)phenyl]carbamoyl}-D-prolyl)amino][1,1′-biphenyl]-3-carboxylic acid], for which the IC50 was 540 nM.
Consider `CC(C)c1ccc(NC(=O)N2CCC[C@@H]2C(=O)Nc2ccc(-c3ccc(O)cc3)cc2)cc1` [Example 46, (2R)-N^2-(4′-hydroxy[1,1′-biphenyl]-4-yl)-N^1-[4-(propan-2-yl)phenyl]pyrrolidine-1,2-dicarboxamide], for which the IC50 was 160 nM.
For the molecule `CC(C)c1ccc(NC(=O)N2CCC[C@@H]2C(=O)Nc2ccc(-c3cc(F)c(O)cc3F)cc2)cc1` [Example 47, (2R)-N^2-(2′,5′-difluoro-4′-hydroxy[1,1′-biphenyl]-4-yl)-N^1-[4-(propan-2-yl)phenyl]pyrrolidine-1,2-dicarboxamide], the IC50 is 47 nM.
Consider `CC(C)c1ccc(NC(=O)N2CCC[C@@H]2C(=O)Nc2ccc(-c3c(F)cc(C(=O)O)cc3F)cc2)cc1` [Example 48, 2,6-difluoro-4′-[(1-{[4-(propan-2-yl)phenyl]carbamoyl}-D-prolyl)amino][1,1′-biphenyl]-4-carboxylic acid], for which the IC50 is 23 nM.
For the molecule `CC(C)c1ccc(NC(=O)N2CCC[C@@H]2C(=O)Nc2ccc(-c3ccc(C(=O)O)cc3C(F)(F)F)cc2)cc1` [Example 49, 4′-[(1-{[4-(propan-2-yl)phenyl]carbamoyl}-D-prolyl)amino]-2-(trifluoromethyl)[1,1′-biphenyl]-4-carboxylic acid], the IC50 was 14 nM.
Turning to `Cc1cc(C(=O)O)cc(-c2ccc(NC(=O)[C@H]3CCCN3C(=O)Nc3ccc(C(C)C)cc3)cc2)c1` [Example 50, 5-methyl-4′-[(1-{[4-(propan-2-yl)phenyl]carbamoyl}-D-prolyl)amino][1,1′-biphenyl]-3-carboxylic acid], the IC50 is 83 nM.
